“Also recorded” adds a separate entry of the source.

Data set [1] has as its system CCR2. In words: Uptake in macrophages from CCR2 knockout mice. The format is cell-based, mouse. To be noted: CCR2 KO vs wild-type, carboxyfluorescein-labeled. Here is the method:
(§1) Supplementary Figure S6. A) Separate channels for main manuscript Figure 1B.
(§2) Uptake of carboxyfluorescein-labeled CCTV or VTCC in cultured bone marrow derived macrophages from B)
(§3) CCR2 knockout (KO, B6.129S4-Ccr2 /J) or wild-type (WT) mice; C) wild-type mouse-derived macrophages
(§4) pre-treated (6 h) with CCR2 inhibitor BMS CCR2 22 (10 nM) or DMSO as vehicle control. C)
(§5) (1 picture or pasted object on this page, not shown here)

For data set [2], the system named is CCR2. Nature of the data set: Uptake in wild-type macrophages pre-treated with CCR2 inhibitor. It is filed as cell-based, mouse. To be noted: BMS CCR2 22 10 nM, 6 h pre-treatment vs DMSO. On the procedure:
as §1, §2, §3, §4, §5

The test system of the next data set is RAW-Blue cells. Nature of the data set: Nanoparticle cell-surface binding/uptake in RAW-Blue cells (rhodamine fluorescence). The format is cell-based, mouse. To be noted: 1 and 10 µM nanoparticles with 1% rhodamine; 550/620 nm. On the procedure: A schematic representation of nanoparticle screening is depicted in Supplementary Figure S4. Briefly, RAW-Blue NFkB reporter cells were cultured as per the manufacturer's recommendations. Cells were seeded and cultured overnight in black opaque 96-well plates with a clear bottom at 50,000 per well. Cells were then treated with 1 and 10 µM of nanoparticles containing 1% rhodamine and positive and negative controls (see below) for 30 min on ice followed by washing steps with cold PBS. Next, lipopolysaccharide (LPS) was added at 100 ng/mL and incubated for 6 h at 37 °C, following which the cells were washed again and incubated for 18 h at 37 °C in fresh medium. Next, 20 µL of supernatant was collected and assayed using SEAP detection reagent in a separate clear bottom 96-well plate as per Invivogen instructions (http://www.invivogen.com). Absorbance at OD 650 nm was recorded and was indicative of NFkB activation. In parallel, cells in the opaque plate were washed again and fluorescence was read at 550 nm excitation and 620 nm emission. This signal from rhodamine was indicative of nanoparticle uptake. […] All analysis was performed using Molecular Devices i3 multi-mode plate reader and SoftMax Pro software version 6.2 (Molecular Devices).

In another data set the test system is recombinant CCR2 protein. In words: CCR2 receptor binding of nanoparticles to immobilized recombinant CCR2. To be noted: recombinant CCR2 2 µg/mL coated; nanoparticles 4 h room temperature; fluorescence 550/620 nm. Also noted: species or system human. Here is the method:
A sandwich-type plate-based immunoassay was developed in-house to study CCR2 receptor binding. Black opaque plates (for fluorescence studies) or clear high protein binding plates (for absorbance studies) were coated with recombinant CCR2 protein at 2 µg/mL in PBS overnight at 4 °C. Plates were washed 5 times with PBS and treated as follows: for nanoparticles binding, varying concentrations of fluorescent nanoparticles or vehicle control (see above) in PBS were added to the opaque plates and incubated for 4 h at room temperature. For peptide competition/binding studies, recombinant human CCL2 was added in clear plates at varying concentrations in PBS simultaneously with a large excess of peptides (1 mM final concentration, dissolved in dimethylformamide) and incubated for 1 h at room temperature. All plates were washed 5 times with PBS and fluorescence in opaque plates was read at 550 nm excitation and 620 nm emissions. […] Clear plates were washed and incubated with 0.1 µg/mL streptavidin-HRP. Finally, clear plates were washed and incubated with SigmaFast OPD reagent in the presence of hydrogen peroxide-urea, as per the manufacturer's instructions. After 30 min incubation period at 37 °C, the plates were read at 450 nm on a multiwell plate reader as described above. Fluorescence emission values and OD at 450 nm were plotted against concentration using a 4-parametric fit.

For data set [3], the system named is bone marrow derived macrophages (BMDMs). Nature of the data set: Immunoblot of IL-1β and HO-1 in LPS-stimulated BMDMs. It is filed as cell-based, mouse. On the procedure:
Immunoblotting was performed as previously described with the following modifications. Briefly, cell lysates were obtained in SDS lysis buffer consisting of 2% SDS, 50 mM Tris-HCl (pH 6.8), 100 mM DTT, 5% Ficoll 400, 0.0001% bromophenol blue and a cocktail of protease inhibitors. Lysates were sonicated on ice before heating at 97 °C for 7 min to completely denature the protein. Protein concentration was determined using IR spectroscopy (which is insensitive to high SDS and DTT concentrations) with a Millipore DirectDetect spectrometer. Lysates were equally loaded at 10-15 µg per lane on BioRad TGX Criterion gels (4-15%) and resolved at 300 V in Tris-Glycine running buffer. Proteins were transferred on nitrocellulose membranes using the BioRad TransBlot turbo according to the manufacturer's instructions. Membranes were blocked in fish serum (Aqua Block) or 5% nonfat dry milk in TBS-T (0.05% Tween 20) and probed overnight at 4 °C with primary antibodies as indicated in Supplementary Table S1. The membranes were washed in TBS-T and incubated with secondary antibodies for 1 h at room temperature. After washing, semi-quantitative visualization of the proteins of interest was enabled using an enhanced chemiluminescence reagent as previously described and the Azure C400 western blot imaging system.
N-acetylcysteine (NAC) served as an antioxidant control. β-Actin was used as a loading control. B) Gene expression analysis in RAW cells treated with 1 µM of vehicle, CCTV and VTCC (peptide nanoparticle control) for 24 h. mRNA expression of mannose receptor (Mrc1), nitric oxide synthase 2 (Nos2), tumor necrosis factor (Tnf), interleukin-1beta (Il1b), and interleukin-6 (Il6) were analyzed. C) Cytokines in cell culture supernatants were analyzed as indicated. […] Metrics of chemotactic behaviour i.e. velocity, distance travelled, and chemotactic index were quantified as presented in bar graphs. […] P values are calculated by t-test and error bars are standard errors of three independent experiments.
In general terms: A western blot detects proteins with antibodies after separation by electrophoresis.

The subject of a further data set is BMDMs. Nature of the data set: DCFDA ROS assay. To be noted: LPS (100 ng/mL) BMDMs, 12 experiments. It is filed as cell-based, mouse. Here is the method: GSH /GSSG, lactate dehydrogenase (LDH) and DCFDA assays were performed according to the manufacturer's instructions. The assays were purchased from vendors as indicated in Supplemental Table S1.

Consider CCTV, for which the “uptake in CCR2 knockout macrophages” value with CCR2 [1] is listed as “drastically reduced”. In the data set with CCR2 [2], the “uptake in macrophages pre-treated with BMS CCR2 22” value was “drastically reduced”. Besides, in the data set on RAW-Blue cells, the cell-surface binding result is “high cell-surface binding”. In the data set on recombinant CCR2 protein, the “binding to immobilized CCR2” value was “bound to immobilized recombinant receptor protein in a dose dependent manner; also recorded: significant, dose-dependent binding”. For the same substance, the “HO-1 levels at high concentration” value in data set [3] (50 µM) is “the effect was reversed”. In addition, in data set [3] (LPS 100 ng/mL, 16 h), the “HO-1 levels (immunoblot)” value is recorded as “reduced” and the “IL-1β production (immunoblot)” value is on record as “dose-dependent reduction of IL-1β”. In the data set with BMDMs, the ROS production entry is reported as “inhibited ROS production in response to LPS; also recorded: significantly blunted”. The “toxicity of SH-conjugated nanoparticles” value with RAW cells is “very low toxicity”.
